Measured values reported in US20160311826A1, “SGC STIMULATORS” (IRONWOOD PHARMACEUTICALS, INC., priority 2013, published 2016).
Read-outs that look alike come from different tables or passages of the source. Each block holds one molecule with its values, some of them ahead of it.

What was measured:
[1] = molecular target: T1, human recombinant soluble guanylate cyclase enzyme α1β1 (h sGC) (Homo sapiens, UniProt Q02108+Q02153); assay: Purified human recombinant sGC α1β1 enzyme assay in the presence of DETA-NONOate (cGMP HTRF); type: biochemical
T1 construct: purchased Enzo Life Sciences ALX-201-177
T1 sequence (Q02108 1-690): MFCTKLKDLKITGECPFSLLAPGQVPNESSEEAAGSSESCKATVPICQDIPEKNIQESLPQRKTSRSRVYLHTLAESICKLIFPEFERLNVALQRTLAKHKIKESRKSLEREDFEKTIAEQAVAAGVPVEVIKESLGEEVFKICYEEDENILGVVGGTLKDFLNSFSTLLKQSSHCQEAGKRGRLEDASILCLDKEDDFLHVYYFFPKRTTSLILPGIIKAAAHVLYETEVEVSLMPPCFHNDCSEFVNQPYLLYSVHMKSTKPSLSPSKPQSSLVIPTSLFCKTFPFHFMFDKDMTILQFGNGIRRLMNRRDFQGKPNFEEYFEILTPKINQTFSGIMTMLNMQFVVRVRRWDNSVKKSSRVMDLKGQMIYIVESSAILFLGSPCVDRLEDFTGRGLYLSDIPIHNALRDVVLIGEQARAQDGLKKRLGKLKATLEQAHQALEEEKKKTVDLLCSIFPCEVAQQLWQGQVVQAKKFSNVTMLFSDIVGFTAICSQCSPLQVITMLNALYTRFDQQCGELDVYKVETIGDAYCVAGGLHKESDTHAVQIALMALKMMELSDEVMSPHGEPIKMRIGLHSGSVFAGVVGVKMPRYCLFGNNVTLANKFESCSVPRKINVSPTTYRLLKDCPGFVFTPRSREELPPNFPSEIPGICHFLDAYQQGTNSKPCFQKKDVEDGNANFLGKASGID
T1 sequence (Q02153 1-619): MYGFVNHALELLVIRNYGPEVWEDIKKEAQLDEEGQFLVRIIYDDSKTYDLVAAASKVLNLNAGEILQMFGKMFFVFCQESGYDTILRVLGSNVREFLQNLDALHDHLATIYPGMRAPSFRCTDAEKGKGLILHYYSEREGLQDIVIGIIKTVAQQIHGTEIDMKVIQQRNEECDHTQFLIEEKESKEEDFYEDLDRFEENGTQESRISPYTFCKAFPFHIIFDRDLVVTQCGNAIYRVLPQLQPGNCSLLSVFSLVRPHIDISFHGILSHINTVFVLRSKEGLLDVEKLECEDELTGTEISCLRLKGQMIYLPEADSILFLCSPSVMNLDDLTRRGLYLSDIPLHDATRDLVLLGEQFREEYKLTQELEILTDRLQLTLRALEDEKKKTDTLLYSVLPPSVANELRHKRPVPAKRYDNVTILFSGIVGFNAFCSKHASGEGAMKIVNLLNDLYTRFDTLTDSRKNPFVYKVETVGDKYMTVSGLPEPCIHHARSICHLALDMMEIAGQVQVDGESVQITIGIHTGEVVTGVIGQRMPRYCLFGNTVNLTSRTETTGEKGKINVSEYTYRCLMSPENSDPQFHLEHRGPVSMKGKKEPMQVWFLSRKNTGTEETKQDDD
Method: Purified human recombinant soluble guanylate cyclase enzyme α1β1 (h sGC) obtained from Enzo Life Sciences (P/N: ALX-201-177) was used to evaluate the activity of test compounds. The assay reactions contained 0.1 M Tris (pH 8.0), 0.5 mg/mL BSA, 2 mM DTT, 4 mM MgCl2, 30 uM DETA NONOate (Enzo Life Science P/N: ALX-430-014), and 12.5 ng/ml human soluble guanylate cyclase enzyme. […] Guanosine 5′-triphosphate (Sigma-Aldrich P/N: G8877) was added to a final concentration of 300 μM and enzyme reactions were incubated (100 μL, 384-well plate format) at 37° C. for 20 minutes. The controls contained 3% DMSO (low control), or 30 uM of Compound Y (high control). After the 20 minute incubation, the reaction was stopped with the addition of 100 μL of ice cold 20% acetic acid.
cGMP concentrations in all samples were determined using the cGMP HTRF (Cisbio P/N: 62GM2PEC) assay per manufacturer's instructions. A cGMP standard curve was fit using a 4-parameter fit (log(inhibitor) vs. response—variable slope) using GraphPad Prism Software v.6. Samples were diluted appropriately to ensure that values fell within the linear range of the standard curve. The EC50 was interpolated from the curve fit and is defined as the concentration at which the compound elicits 50% of the maximal response of the 30 uM of Compound Y, the high control compound.

[2] = molecular target: T2, soluble guanylate cyclase (sGC) (Homo sapiens, UniProt Q02108+Q02153); assay: sGC-HEK-cGMP assay with LC/MS detection; type: cell-based; conditions: HEK293 cells, 10 μM DETA-NONOate; concentration eliciting 50% of high control response (30 μM Compound Y); read-out: sGC_HEK_LC MS EC50 Abs
T2 construct: endogenously expressing soluble guanylate cyclase (sGC); endogenous in cells; host or cells: HEK293
T2 sequence (Q02153 1-619): T1 sequence (Q02153 1-619)
T2 sequence (Q02108 1-690): T1 sequence (Q02108 1-690)
Method: Human embryonic kidney cells (HEK293), endogenously expressing soluble guanylate cyclase (sGC), were used to evaluate the activity of test compounds. Compounds stimulating the sGC enzyme should cause an increase in the intracellular concentration of cGMP. HEK 293 cells were seeded in Dulbecco's Modification of Eagle's Medium supplemented with fetal bovine serum (10% final) and penicillin (100 U/mL)/streptomycin (100 ug/mL) in a […] at a density of 1.5×10^4 cells/well in a poly-D-lysine coated 384 well flat bottom plate. Cells were incubated overnight at 37° C. in a humidified chamber with 5% CO2. Medium was aspirated and cells were washed with 1× Hank's Buffered Saline Salt Solution […]. Cells were then incubated for 15 minutes at 37° C. with 50 μL of a 0.5 mM 3-isobutyl-1-methylxanthine (IBMX) solution. Test article and Diethylenetriamine NONOate (DETA-NONOate) solutions (x μM concentration for test article solution and 10 μM concentration for DETA-NONOate solution; wherein x is one of the following concentrations);
were then added to the assay mixture and the resulting mixture incubated at 37° C. for 20 minutes. After the 20 minute incubation, the assay mixture was aspirated and 10% acetic acid containing 150 ng/mL+3-cGMP (internal standard for LCMS) (50 μL) was added to the cells. The plate was incubated at 4° C. for 30 minutes in the acetic acid solution to stop the reaction and lyse the cells. The plates were then centrifuged at 1,000g for 3 minutes at 4° C. and the supernatant transferred to a clean reaction plate for LCMS analysis.
cGMP concentrations were determined from each sample using the LCMS conditions below (Table 2) and calculated standard curve. The standard curve was prepared in 10% acetic acid with 150 ng/mL+3cGMP (isotopically labelled cGMP with a weight 3 units higher than wild type) with the following final concentrations of cGMP in ng/mL: 1, 5, 10, 50, 100, 250, 500, 1000, 2000.
Data were normalized to a high control using the following equation: 100*(Sample−Low Control)/(High Control−Low Control), where the low control is the average of 16 samples treated with 1% DMSO, and the high control is the average of 16 samples treated with 30 μM of Compound Y depicted below. Data were fit using a 4-parameter fit (log(agonist) vs. response−variable slope) using GraphPad Prism Software v.5. n=2 for all compounds. The Absolute EC50 was interpolated from the curve fit and is defined as the concentration at which a given compound elicits 50% of the high control response. Compounds failing to elicit a minimum response of 50% are reported as >30 μM. For compounds run in duplicate or n higher than 2, the result herein given is the geometric mean of the several results obtained.
Code definitions for the whole cell HEK assay values, expressed as Absolute EC50 which is defined as the concentration at which a given compound elicits 50% of the high control response (Compound Y). Compounds failing to elicit a minimum response of 50% are reported as *.

[3] = test system: lambs with acute pulmonary hypertension; conditions: cited from earlier work; for effect on mean arterial pressure / pulmonary vasodilation / transpulmonary cGMP release: inhaled microparticles with excipients, awake lambs, U-46619 infusion; for systemic arterial oxygenation: inhaled microparticles
[4] = 30 uM DETA NONOate, concentration eliciting 50% of high control response (30 uM Compound Y), read-out: sGC_Enz_HTRF_a1b1 EC50 Abs

- EC50 [1, 4]: > 5 µM
SMILES: COc1cc(-c2ncc(F)c(=O)[nH]2)nn1Cc1ccccc1F [Compound I-5]

- EC50 [1, 4]: > 5 µM
SMILES: O=c1[nH]c(-c2cc(OC(F)F)n(Cc3ccccc3F)n2)ncc1F [Compound I-4]

- EC50 [1, 4]: > 5 µM
SMILES: COc1cc(-c2nccc(N)n2)nn1Cc1ccccc1F [Compound I-6]

- EC50 [1, 4]: < 2 µM
SMILES: COc1cc(-c2ncc(F)c(NCC(O)(C(N)=O)C(F)(F)F)n2)nn1Cc1ccccc1F (stereo not shown) [Compound I-20]

- EC50 [1, 4]: > 5 µM
SMILES: CC1(C(N)=O)C(=O)Nc2nc(-c3cc(O)n(Cc4ccccc4F)n3)nc(N)c21 (stereo not shown) [Compound I-48]

- EC50 [2]: < 0.1 µM
SMILES: COc1cc(-c2nc(N)c3c(n2)NC(=O)C3(C)C(=O)NC2CC2)nn1Cc1ccccc1F (stereo not shown) [Compound I-44]

- EC50 [1, 4]: 2 to 5 µM
SMILES: COc1cc(-c2ncc(F)c(NCCO)n2)nn1Cc1ccccc1F [Compound I-13]

- EC50 [1, 4]: 2 to 5 µM
SMILES: COc1cc(-c2ncc(F)c(NCc3cc(=O)[nH]o3)n2)nn1Cc1ccccc1F [Compound I-19]

- EC50 [1, 4]: 2 to 5 µM
SMILES: COc1cc(-c2ncc(F)c(N3CCC[C@H](C)[C@@H]3C(=O)O)n2)nn1Cc1ccccc1F [Compound I-70]

- EC50 [1, 4]: > 5 µM
SMILES: COc1cc(-c2ncc(F)c(NCC(=O)O)n2)nn1Cc1ccccc1F [Compound I-9]

- EC50 [1, 4]: > 5 µM
SMILES: Fc1cnc(-c2cc(OC(F)F)n(Cc3cccc(F)c3F)n2)nc1 [Compound I-59]

- EC50 [1, 4]: > 5 µM
SMILES: CCOC(=O)C1(C)C(=O)Nc2nc(-c3nn(Cc4ccccc4F)c(=O)[nH]3)nc(N)c21 (stereo not shown) [Compound I-21]

- EC50 [2]: > 30 µM
SMILES: COc1cc(-c2ncc(F)c(N3CCS(=O)(=O)CC3)n2)nn1Cc1ccccc1F [Compound I-63]

- EC50 [2]: < 0.1 µM
SMILES: CCOC(=O)C1(C)C(=O)Nc2nc(-c3cc(OC(F)F)n(Cc4ccccc4F)n3)nc(N)c21 (stereo not shown) [Compound I-72]

- EC50 [1, 4]: 2 to 5 µM
SMILES: COc1cc(-c2ncc(F)c(NCC(O)CO)n2)nn1Cc1ccccc1F (stereo not shown) [Compound I-64]

- EC50 [1, 4]: > 30 µM
SMILES: CC1(C(N)=O)C(=O)Nc2nc(-c3nn(Cc4ccccc4F)c(=O)[nH]3)nc(N)c21 (stereo not shown) [Compound I-10]

Further lines, the molecule ahead of its results:

SMILES: CCOC(=O)C1(C)C(=O)Nc2nc(-c3cc(OC)n(Cc4ccccc4F)n3)nc(N)c21 (stereo not shown) [Compound I-1, ethyl 4-amino-2-(1-(2-fluorobenzyl)-5-methoxy-1H-pyrazol-3-yl)-5-methyl-6-oxo-6,7-dihydro-5H-pyrrolo[2,3-d]pyrimidine-5-carboxylate]
- EC50 [1, 4]: < 2 µM
- EC50 [2]: < 0.1 µM

SMILES: O=c1onc2cnc3ccccc3n12 [ODQ, 1H-[1,2,4]oxadiazolo[4,3-a]quinoxalin-1-one]
- effect on pulmonary vasodilator effect of iNO ([3]; intravenous administration): markedly reduced the pulmonary vasodilator effect of iNO

SMILES: Nc1nc(-c2nn(Cc3ccccc3F)c3ncccc23)nc(N)c1N1CCOCC1 [BAY 41-8543]
- magnitude and duration of pulmonary vasodilation induced by iNO ([3]; after inhaling the microparticles): augmented
- effect on mean arterial pressure [3]: without significant effect on mean arterial pressure
- pulmonary vasodilation [3]: dose dependent pulmonary vasodilation
- transpulmonary cGMP release [3]: increased transpulmonary cGMP release
- systemic arterial oxygenation [3]: increased systemic arterial oxygenation

SMILES: COc1nc(-c2nc(N)c3c(n2)NC(=O)C3(C)C(N)=O)nn1Cc1ccccc1F (stereo not shown) [Compound I-17]
- EC50 [1, 4]: > 5 µM

SMILES: Cn1c(-c2nc(N)c3c(n2)NC(=O)C3(C)C(=O)NC2CC2)nn(Cc2ccccc2F)c1=O (stereo not shown) [Compound I-38]
- EC50 [1, 4]: < 2 µM

SMILES: CCOC(=O)C1(C)C(=O)Nc2nc(-c3nn(Cc4ccccc4F)c(=O)n3C)nc(N)c21 (stereo not shown) [Compound I-29]
- EC50 [1]: 2 to 5 µM

SMILES: COc1nc(-c2ncc(F)c(O)n2)nn1Cc1ccccc1F [Compound I-3]
- EC50 [1, 4]: > 30 µM
- EC50 [2]: > 30 µM

SMILES: O=C(O)CCCCN(CCc1ccccc1OCc1ccc(CCc2ccccc2)cc1)Cc1ccc(C(=O)O)cc1 [BAY 58-2667]
- pulmonary vasodilation and transpulmonary cGMP release after treatment with ODQ ([3]; inhaled microparticles after ODQ): greatly enhanced
- effect on mean arterial pressure [3]: without significant effect on mean arterial pressure
- pulmonary vasodilation [3]: dose dependent pulmonary vasodilation
- transpulmonary cGMP release [3]: increased transpulmonary cGMP release
- systemic arterial oxygenation [3]: increased systemic arterial oxygenation

SMILES: Cn1c(-c2nc(N)c3c(n2)NC(=O)C3(C)C(N)=O)nn(Cc2ccccc2F)c1=O (stereo not shown) [Compound I-18]
- EC50 [1, 4]: > 5 µM

SMILES: CCOC(=O)C1(C)C(=O)Nc2nc(-c3nc(OC)n(Cc4ccccc4F)n3)nc(N)c21 (stereo not shown) [Compound I-30]
- EC50 [1]: 2 to 5 µM

SMILES: Nc1nc(-c2nn(Cc3ccccc3F)c3ncccc23)ncc1C1CC1 [BAY 41-2272]
- effect on mean arterial pressure [3]: without significant effect on mean arterial pressure
- pulmonary vasodilation [3]: dose dependent pulmonary vasodilation
- transpulmonary cGMP release [3]: increased transpulmonary cGMP release

SMILES: COc1nc(-c2nc(N)c3c(n2)NC(=O)C3(C)C(=O)NC2CC2)nn1Cc1ccccc1F (stereo not shown) [Compound I-37]
- EC50 [1, 4]: 2 to 5 µM
